According to ChEMBL document CHEMBL3763046 (Bioorg Med Chem, 2016):

Columns and labels:
MDA-MB-231 = assay: Cytotoxicity against human MDA-MB-231 cells after 72 hrs by MTT assay; type: functional, cell-based; details: MDA-MB-231, 72 h
A549 = assay: Cytotoxicity against human A549 cells after 72 hrs by MTT assay; type: functional, cell-based; details: A549, 72 h
HT-29 [1] = assay: Cytotoxicity against human HT-29 cells after 72 hrs by MTT assay; details: HT-29, 72 h
[2] = Cytotoxicity against human MKN45 cells after 72 hrs by MTT assay; details: MKN-45, 72 h
PBL = assay: Cytotoxicity against human PBL cells after 72 hrs by MTT assay; type: cell-based
[3] = Apparent volume of distribution during terminal phase in mouse at 35 mg/kg, po administered as single dose measured at 0.25 to 24 hrs by LC/MS/MS analysis; type: ADME, organism-based; details: in vivo, read-out: Vz/F
Mus musculus [4] = assay: Half life in mouse at 20 mg/kg, iv or 35 mg/kg, po administered as single dose by LC/MS/MS analysis; type: ADME, organism-based; details: in vivo
[5] = Mean residence time (0 to infinity) in mouse at 20 mg/kg, iv or 35 mg/kg, po administered as single dose by LC/MS/MS analysis; type: ADME, organism-based; details: in vivo
Mus musculus [6] = assay: Tmax in mouse at 35 mg/kg, po administered as single dose by LC/MS/MS analysis; type: ADME, organism-based; details: in vivo
Mus musculus [7] = assay: AUC (0 to infinity) in mouse at 20 mg/kg, iv or 35 mg/kg, po administered as single dose by LC/MS/MS analysis; type: ADME, organism-based; details: in vivo
Mus musculus [8] = assay: Cmax in mouse at 35 mg/kg, po administered as single dose measured at 0.25 to 24 hrs by LC/MS/MS analysis; type: ADME, organism-based; set-up: dose 35 mg/kg, route oral; details: in vivo
Mus musculus [9] = assay: Toxicity in Balb/c mouse xenografted with human HT-29 cells assessed as change in body weight at 50 mg/kg, po bid for 27 days; type: organism-based; details: in vivo, 648 h
HT-29 [10] = assay: Antitumor activity against human HT-29 cells xenografted in Balb/c mouse assessed as tumor growth inhibition at 50 mg/kg, po bid for 27 days relative to control; type: functional; set-up: scale not given: the % may be the effect or the level left
[11] = Antitumor activity against human MKN45 cells xenografted in Balb/c mouse assessed as tumor growth inhibition at 50 mg/kg, po bid for 24 days relative to control; type: functional, MKN-45; set-up: scale not given: the % may be the effect or the level left
Mus musculus [12] = assay: Toxicity in Balb/c mouse xenografted with human MKN45 cells assessed as change in body weight at 50 mg/kg, po bid for 24 days; type: organism-based, MKN-45; details: in vivo, 576 h

Compound | IC50 (MDA-MB-231) [nM] | IC50 (A549) [nM] | IC50 (HT-29 [1]) [nM] | IC50 [2] [nM] | IC50 (PBL) [nM] | also measured
COc1cc2c(Oc3ccc(NC(=O)N/N=C/c4ccc([N+](=O)[O-])cc4)cc3F)ccnc2cc1OCCCN1CCCC1 | 970 | 460 | 310 | 470 |  | 
COc1cc2c(Oc3ccc(NC(=O)N/N=C/c4ccncc4)cc3F)ccnc2cc1OCCCN1CCCCC1 | 1400 | 840 | 940 | 980 |  | 
COc1cc2c(Oc3ccc(NC(=S)N/N=C/c4ccc(Cl)cc4)cc3F)ccnc2cc1OCCCN1CCCCC1 | 1300 |  | 190 | 500 |  | 
COc1cc2c(Oc3ccc(NC(=O)N/N=C/c4ccc(Cl)cc4Cl)cc3F)ccnc2cc1OCCCN1CCCCC1 | 750 |  | 370 | 460 |  | 
COc1cc2c(Oc3ccc(NC(=O)N/N=C/c4ccc(N(C)C)cc4)cc3F)ccnc2cc1OCCCN1CCCCC1 | 1400 |  | 1000 | 870 |  | 
COc1cc2c(Oc3ccc(NC(=O)N/N=C/c4ccc(F)cc4Cl)cc3F)ccnc2cc1OCCCN1CCC(C)CC1 | 1500 | 190 | 440 | 530 | 79500 | 
COc1cc2c(Oc3ccc(/C=N/NC(=O)Nc4ccc(F)cc4Br)cc3F)ccnc2cc1OCCCN1CCCCC1 | 1000 | 98 | 110 | 140 | 36400 | Vd/F [3]: 346 L/kg; t1/2 (Mus musculus [4]): 5.07 h; MRT inf [5]: 14.8 h; Tmax (Mus musculus [6]): 7.33 h; AUC (Mus musculus [7]): 1210 ng·h/mL; Cmax (Mus musculus [8]): 73 ng/mL
COc1cc2c(Oc3ccc(NC(=O)N/N=C/c4ccc(C(F)(F)F)cc4)cc3F)ccnc2cc1OCCCN1CCC(C)CC1 | 1300 | 650 | 740 | 1000 |  | 
COc1cc2c(Oc3ccc(NC(=S)N/N=C/c4ccc(F)cc4Cl)cc3F)ccnc2cc1OCCCN1CCCCC1 | 1400 | 230 | 420 | 820 | 34100 | 
COc1cc2c(Oc3ccc(NC(=S)N/N=C/c4ccccc4)cc3F)ccnc2cc1OCCCN1CCCCC1 | 1200 | 330 | 210 | 710 | 78400 | Vd/F [3]: 107 L/kg; t1/2 (Mus musculus [4]): 13.48 h; MRT inf [5]: 24.3 h; Tmax (Mus musculus [6]): 12 h; AUC (Mus musculus [7]): 7340 ng·h/mL; Cmax (Mus musculus [8]): 87 ng/mL
COc1ccc(/C=N/NC(=O)Nc2ccc(Oc3ccnc4cc(OCCCN5CCOCC5)c(OC)cc34)c(F)c2)cc1 | 1900 |  | 900 | 770 | 17200 | 
COc1cc2c(Oc3ccc(NC(=S)N/N=C/c4ccc(F)c(F)c4)cc3F)ccnc2cc1OCCCN1CCCCC1 | 1400 |  | 610 | 740 |  | 
COc1ccc(/C=N/NC(=O)Nc2ccc(Oc3ccnc4cc(OCCCN5CCCCC5)c(OC)cc34)c(F)c2)cc1 | 840 | 540 | 590 | 660 | 126000 | 
COc1ccc(/C=N/NC(=O)Nc2ccc(Oc3ccnc4cc(OCCCN5CCCC5)c(OC)cc34)c(F)c2)cc1 | 1300 | 680 | 690 | 750 | 26500 | 
COc1ccc(/C=N/NC(=O)Nc2ccc(Oc3ccnc4cc(OCCCN5CCCCC5)c(OC)cc34)c(F)c2)c(OC)c1 |  | 1400 | 1600 | 1990 |  | 
COc1cc2c(Oc3ccc(/C=N/NC(=O)Nc4ccc(Br)cc4)cc3F)ccnc2cc1OCCCN1CCCCC1 | 800 |  | 270 | 60 |  | 

Compound | IC50 (MDA-MB-231) [nM] | IC50 (A549) [nM] | IC50 (HT-29 [1]) [nM] | IC50 [2] [nM] | IC50 (PBL) [nM] | also measured
COc1cc2c(Oc3ccc(NC(=O)N/N=C/c4ccc(C(F)(F)F)cc4)cc3F)ccnc2cc1OCCCN1CCCC1 | 1800 | 790 | 810 | 1300 |  | 
COc1cc2c(Oc3ccc(NC(=O)N/N=C/c4cc5ccccc5[nH]4)cc3F)ccnc2cc1OCCCN1CCCCC1 | 980 | 780 | 820 | 830 |  | 
COc1cc2c(Oc3ccc(NC(=O)N/N=C/c4ccc(Cl)cc4Cl)cc3F)ccnc2cc1OCCCN1CCC(C)CC1 | 910 |  | 470 | 350 |  | 
COc1cc2c(Oc3ccc(/C=N/NC(=O)Nc4ccc(F)c(F)c4)cc3F)ccnc2cc1OCCCN1CCCCC1 | 960 |  | 490 | 320 |  | 
C=CCc1cccc(/C=N/NC(=O)Nc2ccc(Oc3ccnc4cc(OCCCN5CCCCC5)c(OC)cc34)c(F)c2)c1OC | 790 | 250 | 460 | 670 |  | 
COc1cc2c(Oc3ccc(NC(=O)N/N=C/c4ccc(O)cc4)cc3F)ccnc2cc1OCCCN1CCCCC1 | 790 | 780 | 470 | 850 |  | 
COc1cc2c(Oc3ccc(NC(=O)N/N=C/c4cccs4)cc3F)ccnc2cc1OCCCN1CCCCC1 | 1260 | 790 | 770 | 740 | 68700 | 
COc1cc2c(Oc3ccc(NC(=O)N/N=C/c4ccc(OC(F)(F)F)cc4)cc3F)ccnc2cc1OCCCN1CCCCC1 | 820 | 590 | 510 | 630 |  | 
COc1cc2c(Oc3ccc(/C=N/NC(=O)Nc4ccccc4)cc3F)ccnc2cc1OCCCN1CCCCC1 | 1200 | 280 | 190 | 180 | 25500 | 
COc1ccc(/C=N/NC(=O)Nc2ccc(Oc3ccnc4cc(OCCCN5CCC(C)CC5)c(OC)cc34)c(F)c2)cc1 | 1000 | 430 | 610 | 470 | 23000 | 
COc1cc2c(Oc3ccc(NC(=O)N/N=C/c4ccc([N+](=O)[O-])cc4)cc3F)ccnc2cc1OCCCN1CCOCC1 | 1700 |  | 710 | 750 |  | 
COc1cc2c(Oc3ccc(NC(=O)N/N=C/c4ccc([N+](=O)[O-])cc4)cc3F)ccnc2cc1OCCCN1CCC(C)CC1 | 870 | 380 | 230 | 420 |  | 
COc1cc2c(Oc3ccc(NC(=O)N/N=C/c4ccc(C(F)(F)F)cc4)cc3F)ccnc2cc1OCCCN1CCCCC1 | 1100 | 660 | 660 | 630 |  | 
COc1cc2c(Oc3ccc(NC(=O)C4(C(=O)Nc5ccc(F)cc5)CC4)cc3F)ccnc2cc1OCCCN1CCOCC1 [FORETINIB] |  |  |  |  |  | Activity (Mus musculus [9]): Non-toxic; Activity (HT-29 [10]): 73.68%; Activity [11]: 78.23%; Activity (Mus musculus [12]): Non-toxic
C=CCc1cccc(/C=N/NC(=O)CN2CCN(Cc3ccccc3)CC2)c1O [PAC-1] |  |  |  | 820 | 124000 | 
